The source of these data is patent US5986083A, “Synthetic oligomers having phosphonate internucleosidyl linkages of undefined chirality mixed with non-phosphonate internucleosidyl linkages” (priority 1994, dated 1999).

The subject of the test is complementary RNA target. In words: Thermal dissociation from complementary RNA target (second Example H). Type of test: binding. The following applies: for Td: 50% of bound oligomer denatured from RNA target, pH 6.8 denaturation buffer; for ΔTd/DE Bond: per DE bond. How it is done:
The following oligomers [SEQ. ID. NO. ] were tested for their ability to bind a complementary RNA target. Each has the same nucleotide sequence but with a different number of phosphodiester and/or methylphosphonate linkages.
An RNA target containing a tandem array of complementary target sequences connected by noncomplementary sequences (170 nt long) was prepared from synthetic DNA oligonucleotides by standard closing techniques.
Each of the test oligomers (above) was end-labeled with ^32 p using […] and T4 polynucleotide kinase. The resulting labeled oligomers were purified on a Nensorb-20 column (New England Nuclear/DuPont) according to the manufacturer's specifications. The final specific activity of each oligomer ranged between 2×10^6 and 4×10^6 cpm/pmol (Cerenkov radiation). Annealing reactions were prepared with one of the test oligomers (100,000 cpms) and 250 pmols of RNA target in 20 mM potassium phosphate, 0.03% potassium sarkosylate, 0.1 mM EDTA, pH 7.2, total volume--200 μL. These annealing reactions were heated to 80° C. and then cooled slowly to 4° C. over a period of about 4 to 6 hours. Next, 20 μL aliquots from each tube were transferred to separate tubes containing 0.5 mL of 0.1 M sodium phosphate, 0.1% Triton X-100, pH 6.8. This transfer step was done on ice. The resulting tubes were individually heated at various temperatures "denaturation temperatures", ranging from 10 to 70° C.) in a circulating water bath for five minutes and then quickly cooled by immersion in crushed ice. Next, 10 μL of Amine BioMag (Advanced Magnetics, Inc., Cat. No. M-4100, 50 mg/mL stock in water) was added to the tube and it was vortexed briefly and placed back on ice for 5 minutes. During this time period, the RAN target strands (both free and bound) separated onto the magnetic support. […] Thus, the amount of radioactivity bound to the support was proportional to the amount of hybridized oligomer remaining at each denaturation temperature after five minutes. A curve was then plotted for the percentage of hybridized oligomer remaining at each denaturation temperature. The thermal dissociation temperature (Td) was defined as the temperature at which 50% of the bound oligomer had denatured away from the RNA target. The following table summarizes the results from this experiment.

On to “5'-GpAmTpAmTpCpTpGmCpGmGmTpGmTpCpCpAmT-3' [Oligomer 1363]”, for which the Td was determined as 45.2 °C and the “ΔTd/DE Bond” value came out at 1.8 °C.
As to “5'-GpAmTmAmTdCmTmGpCmGmGmTmGmTpCmCmAmT-3' [Oligomer 1362]”, the Td was 30.7 °C and the “ΔTd/DE Bond” value was 0.5 °C.
Substance “5'-GpAmTmAmTmCmTmGmCmGmGmTmGmTmCmCmAmT-3' [Oligomer 1036]” yielded a Td of 29.3 °C.
“5'-GpAmTpAmTpCmTpGmCmGmGmTpGmTpCmCmAmT-3' [Oligomer 1359]”: the Td stood at 34.0 °C and the “ΔTd/DE Bond” value came to 0.9 °C.
Regarding “5'-GpAmTmAmTmCpTmGmCpGmGmTmGmTmCpCpAmT-3' [Oligomer 1361]”, the Td turned out to be 32.2 °C and the “ΔTd/DE Bond” value was determined as 0.7 °C.
